From US8598119B2, “Methods and compositions for sleep disorders and other disorders” (priority 2008, dated 2013)
Entries after “also recorded” stand apart in the source; their conditions may differ.

Legend:
socially-defeated mice [1] = details: treated daily for 30 days; cited from earlier work
[2] = tested on: patients with sleep maintenance insomnia (SMI); test: Clinical trial, overnight PSG in patients with sleep maintenance insomnia; type: in vivo, human; details: for SWS, Mean Change from Baseline / Total Sleep Time, Mean Change from Baseline / Total Time Awake, Mean Change from Baseline / WASO, Mean Change from Baseline: n = 18, PSG
[3] = target: SERT (rat forebrain synaptosomal membrane) (Rattus norvegicus (Rat), UniProt P31652); test: Transporter SERT radioligand binding assay in rat forebrain, [3H]-N-Methyl-Citalopram; details: Table 2
Sequence of SERT (rat forebrain synaptosomal membrane) (P31652 whole entry): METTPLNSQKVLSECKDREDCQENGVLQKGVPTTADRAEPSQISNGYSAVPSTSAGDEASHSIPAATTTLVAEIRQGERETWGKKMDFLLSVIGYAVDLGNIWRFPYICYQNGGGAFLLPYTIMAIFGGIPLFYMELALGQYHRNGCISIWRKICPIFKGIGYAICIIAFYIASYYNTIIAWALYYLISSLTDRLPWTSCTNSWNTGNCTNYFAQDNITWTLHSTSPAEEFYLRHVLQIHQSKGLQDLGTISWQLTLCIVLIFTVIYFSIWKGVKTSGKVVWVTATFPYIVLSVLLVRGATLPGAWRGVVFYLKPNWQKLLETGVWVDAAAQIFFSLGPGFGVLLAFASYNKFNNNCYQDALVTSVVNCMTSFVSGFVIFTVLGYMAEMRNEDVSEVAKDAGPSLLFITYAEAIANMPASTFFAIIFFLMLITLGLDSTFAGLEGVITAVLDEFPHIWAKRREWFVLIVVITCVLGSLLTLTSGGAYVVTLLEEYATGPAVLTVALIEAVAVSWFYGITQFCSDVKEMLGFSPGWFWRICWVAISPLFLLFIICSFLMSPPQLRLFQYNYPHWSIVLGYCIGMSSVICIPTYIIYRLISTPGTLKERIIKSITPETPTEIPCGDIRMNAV

Striatal D2 receptor = Striatal D2 receptor (Homo sapiens (Human), UniProt P14416); test: Striatal D2 receptor occupancy by positron emission tomography in healthy volunteers; type: in vivo; details: PET
Sequence of Striatal D2 receptor (P14416 whole entry): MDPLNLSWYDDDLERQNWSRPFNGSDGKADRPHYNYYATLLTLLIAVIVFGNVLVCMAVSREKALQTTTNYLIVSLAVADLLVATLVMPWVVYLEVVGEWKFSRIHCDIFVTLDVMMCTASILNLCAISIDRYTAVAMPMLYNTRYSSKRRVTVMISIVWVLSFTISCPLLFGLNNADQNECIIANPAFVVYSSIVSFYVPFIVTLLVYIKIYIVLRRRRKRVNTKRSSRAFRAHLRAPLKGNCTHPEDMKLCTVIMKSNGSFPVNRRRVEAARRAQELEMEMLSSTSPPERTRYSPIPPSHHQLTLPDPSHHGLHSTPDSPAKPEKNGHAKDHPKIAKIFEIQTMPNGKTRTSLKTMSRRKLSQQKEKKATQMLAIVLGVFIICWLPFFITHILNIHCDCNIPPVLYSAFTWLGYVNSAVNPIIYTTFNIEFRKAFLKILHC

H1 receptors = H1 receptors (Homo sapiens (Human), UniProt P35367); test: biochemical
Sequence of H1 receptors (P35367 whole entry): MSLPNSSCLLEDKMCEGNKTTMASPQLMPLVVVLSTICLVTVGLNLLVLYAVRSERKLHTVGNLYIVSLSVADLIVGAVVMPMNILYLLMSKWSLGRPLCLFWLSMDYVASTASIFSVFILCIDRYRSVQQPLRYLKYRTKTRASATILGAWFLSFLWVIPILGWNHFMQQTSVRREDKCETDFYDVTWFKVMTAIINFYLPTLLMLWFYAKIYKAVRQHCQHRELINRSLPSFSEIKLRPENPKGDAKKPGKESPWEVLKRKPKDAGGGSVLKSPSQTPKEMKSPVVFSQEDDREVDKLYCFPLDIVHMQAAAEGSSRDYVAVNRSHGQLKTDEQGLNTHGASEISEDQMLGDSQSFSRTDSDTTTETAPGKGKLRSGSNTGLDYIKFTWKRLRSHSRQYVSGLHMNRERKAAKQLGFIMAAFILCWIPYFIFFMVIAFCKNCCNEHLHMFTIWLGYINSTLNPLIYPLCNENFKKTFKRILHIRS

socially-defeated mice [4] = test: Social defeat (resident-intruder) mouse model for depression; type: in vivo
[5] = tested on: unilateral 6-OHDA-lesioned mice; test: L-DOPA induced dyskinesia (AIMS) in unilateral 6-OHDA-lesioned mice; type: in vivo, mouse
Source text: Day 1-Day 9: Treatment with L-DOPA/benserazide
Day 10: Treatment with L-DOPA/benserazide+Evaluation of AIMs (dyskinesia)
Experiment 1 (Chronic): Development of Dyskinesia
Day 1-Day 10: Treatment with L-DOPA/benserazide plus ITI-007 ITI-007PD.
Day 11: Treatment with L-DOPA/benserazide+Evaluation of AIMs (dyskinesia)
Experiment 2 (Acute): Expression of dyskinesia
Day 1-Day 10: Treatment with L-DOPA/benserazide
Day 11: Treatment with L-DOPA/benserazide plus ITI-007+Evaluation of AIMs (dyskinesia)
The compound effectively reduces (by ˜50%) the development of dyskinetic behaviors in PD mice (i.e., Chronic treatment group). It has a less robust but still significant effect (by ˜25% reduction) on established dyskinetic behaviors (i.e., Acute treatment group). […] In addition to reducing L-DOPA-Induced Dyskinesias, as described above, the Compounds of Formula I will also reduce PD psychosis and depression, improve poor night time sleep and reduce excessive daytime sleepiness.

human 5-HT2C receptors = human 5-HT2C receptors (Homo sapiens (Human), UniProt P28335, I156V/I160V); test: biochemical
Sequence of human 5-HT2C receptors (P28335 33-458 I156V/I160V): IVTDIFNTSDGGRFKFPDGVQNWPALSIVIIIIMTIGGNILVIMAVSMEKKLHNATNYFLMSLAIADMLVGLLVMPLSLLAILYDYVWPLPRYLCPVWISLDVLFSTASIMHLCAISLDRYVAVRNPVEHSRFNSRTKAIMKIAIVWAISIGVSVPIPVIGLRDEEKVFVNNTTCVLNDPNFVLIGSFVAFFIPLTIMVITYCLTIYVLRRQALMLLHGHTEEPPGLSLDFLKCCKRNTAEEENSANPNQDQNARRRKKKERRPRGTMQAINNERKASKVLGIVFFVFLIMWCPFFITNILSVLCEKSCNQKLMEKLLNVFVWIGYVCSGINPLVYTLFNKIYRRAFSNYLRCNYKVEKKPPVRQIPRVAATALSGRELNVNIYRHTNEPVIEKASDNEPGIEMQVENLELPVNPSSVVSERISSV

[6] = 1, 5, 10 mg single doses, in words

Question: For `CN(C)CCCN1c2ccccc2CCc2ccccc21` [IMI, imipramine], which “social interaction behavior of socially defeated mice after chronic anti-depressant” value (socially-defeated mice [1]) is on record?
Answer: Its value is “improved social interaction behavior”.

Question: With `CN1CCN2c3c(cccc31)[C@@H]1CN(CCCC(=O)c3ccc(F)cc3)CC[C@@H]12` [Compound A, 1-(4-Fluoro-phenyl)-4-((6bR,10aS)-3-methyl-2,3,6b,9,10,10a-hexahydro-1H,7H-pyrido[3′,4′,4,5]pyrrolo[1,2,3-de]quinoxalin-8-yl)-butan-1-one] as the compound, how does the “SWS, Mean Change from Baseline” value ([2]; 1 mg single dose) read?
Answer: Its value is 0.47 min.

Question: And the “Total Sleep Time, Mean Change from Baseline” value (“Total Sleep Time, Mean Change” below) ([2]; 1 mg single dose)?
Answer: Its value is 4.17 min.

Question: And the “Total Time Awake, Mean Change from Baseline” value (“Total Time Awake, Mean Change” for short) ([2]; 1 mg single dose)?
Answer: The value was -4.08 min.

Question: What about the “WASO, Mean Change from Baseline” value ([2]; 1 mg single dose) of the same compound?
Answer: The value was -12.69 min.

Question: And the “SWS, Mean Change from Baseline” value ([2]; 5 mg single dose)?
Answer: The value was 5.53 min.

Question: And the “Total Sleep Time, Mean Change” value ([2]; 5 mg single dose)?
Answer: The value was 0.56 min.

Question: And the “Total Time Awake, Mean Change” value ([2]; 5 mg single dose)?
Answer: The value was -1.42 min.

Question: And the “WASO, Mean Change from Baseline” value ([2]; 5 mg single dose)?
Answer: The value was -14.31 min.

Question: And the “SWS, Mean Change from Baseline” value ([2]; 10 mg single dose)?
Answer: The value was 8.94 min.

Question: And the “Total Sleep Time, Mean Change” value ([2]; 10 mg single dose)?
Answer: Its value is 27.61 min.

Question: And the “Total Time Awake, Mean Change” value ([2]; 10 mg single dose)?
Answer: The value was -28.31 min.

Question: And the “WASO, Mean Change from Baseline” value ([2]; 10 mg single dose)?
Answer: The value was -33.22 min.

Question: And the “effect on slow wave sleep (SWS)” value [2, 6]?
Answer: The value was “increases SWS; also recorded: dose-dependently increase slow wave sleep”.

Question: What about the “effect on wake time after sleep onset (WASO)” value [2, 6] of the same compound?
Answer: The value was “dose-dependently decreases WASO; also recorded: dose-dependently decreases wake after sleep onset”.

Question: What about the “duration of REM” value ([2]; PSG) of the same compound?
Answer: The value was “no change in duration of REM; also recorded: did not suppress REM sleep”.

Question: And the “latency to REM” value ([2]; PSG)?
Answer: Its value is “no change on latency to REM”.

Question: And the “latency to fall asleep” value ([2]; PSG)?
Answer: The value was “does not impair latency to fall asleep”.

Question: And the “slow wave sleep by part of the night” value ([2]; first and second quarter of the night)?
Answer: Its value is “increases slow wave sleep during the first half of the night”.

Question: And the “dose-related adverse events or changes in safety parameters” value ([2]; human, in vivo)?
Answer: Its value is “no dose-related adverse events or changes in safety parameters”.

Question: What about the early-morning rebound insomnia ([2]; human, in vivo) of the same compound?
Answer: Its early-morning rebound insomnia is “no early-morning rebound insomnia”.

Question: And the serious adverse events ([2]; human, in vivo)?
Answer: The serious adverse events was “no serious adverse events”.

Question: What about the total sleep time ([2]; in words) of the same compound?
Answer: Its total sleep time is “increase total sleep time”.

Question: And the “cognitive function the morning after PSG (DSST, WPAT, Leeds Psychomotor Test)” value ([2]; next day)?
Answer: The value was “does not impair cognitive function; also recorded: do not impair next-day cognitive function”.

Question: What about the sleep architecture ([2]; over the course of the night) of the same compound?
Answer: The sleep architecture was “preserves normal sleep architecture over the course of the night”.

Question: What about the safety and tolerability ([2]; patients with sleep maintenance insomnia) of the same compound?
Answer: The safety and tolerability was “safe and well tolerated; also recorded: safe and well-tolerated”.

Question: And the “stage 2 sleep by part of the night” value ([2]; third and fourth quarter of the night)?
Answer: Its value is “increases stage 2 sleep during the second half of the night”.

Question: What about the Ki [3] of the same compound?
Answer: The Ki was 46 nM.

Question: And the “% Striatal D2 Occupancy” value (Striatal D2 receptor; 20 mg)?
Answer: The value was about 20%.

Question: And the “% Striatal D2 Occupancy” value (Striatal D2 receptor; 30 mg)?
Answer: Its value is about 32%.

Question: And the Ki (H1 receptors)?
Answer: The Ki was over 100 nM.

Question: And the “time in the Interaction Zone, socially-defeated mice” value (socially-defeated mice [4]; 1 mg/kg IP once daily for 29 d, tested day 30, versus socially-defeated mice receiving vehicle)?
Answer: The value was “almost twice as much time in the Interaction Zone”.

Question: And the “general health and weight gain, normal mice” value (socially-defeated mice [4]; normal mice treated once daily for 30 d, 1 mg/kg IP)?
Answer: The value was “healthy and normal-appearing and gained weight normally”.

Question: What about the “time in the Interaction Zone, normal mice” value (socially-defeated mice [4]; normal mice, 1 mg/kg IP once daily, versus vehicle) of the same compound?
Answer: Its value is “comparable time in the Interaction Zone as mice receiving the vehicle injection”.

Question: And the “reduction of development of dyskinetic behaviors (Chronic treatment group)” value ([5]; 0.3 mg/kg IP co-administered with levodopa 10 mg/kg IP, chronic)?
Answer: The value was about 50%.

Question: And the “reduction of established dyskinetic behaviors (Acute treatment group)” value ([5]; 0.3 mg/kg IP with levodopa 10 mg/kg IP, acute)?
Answer: The value was about 25%.

Question: And the Ki (human 5-HT2C receptors)?
Answer: The Ki was 173 nM.

Question: For `CNCCC(Oc1ccc(C(F)(F)F)cc1)c1ccccc1` (centres unmarked) [fluoxetine], which “social interaction behavior of socially defeated mice after chronic anti-depressant” value (socially-defeated mice [1]) is on record?
Answer: Its value is “improved social interaction behavior”.
